Read-outs that look alike come from different tables or passages of the source. Starred links: 1 amine or outer side, 2 acyl side, 3 side chain; linkers in the order of their positions; H or OH if unused. Positions of bridges follow the written chain, without caps; N, C: chain ends. Non-standard residues stand in square brackets, D forms with d. Residues, ends and D or L forms follow the SMILES beside them. Chains are numbered I, II in the order given. Hexamethylenediamine = C(CCCN[*:2])CCN[*:1]; Dip = N[C@H](C(=O)O)C(c1ccccc1)c1ccccc1; Chg = N[C@H](C(=O)O)C1CCCCC1; NMeA = CN[C@@H](C)C(=O)O A value given as a limit tells only on which side of the number the result lay.

What all share (format): cell-based
The subject of assay [1] is 5′- and 3′-UTRs of human utrophin. Put plainly: Screening assay: C2C12 stable reporter line, CMV-driven luciferase flanked by utrophin 5′ and 3′ UTRs. The note with it: for Upper-lower limits scoren: difference between upper and lower boundaries of the fitted dose-response screening curve; for Fold diff: fold difference between the EC50s of screening and counterscreening. On the procedure: (§1) The construct for the HTS assay was generated by cloning the 5′- and 3′-UTRs of human utrophin into pGL4:50-hygro (Promega, Madison, Wis.) at the 5′ and 3′ of the luciferase coding sequence and has been described previously by Moorwood. […] For the counterscreening assay, the pGL4:50-hygro plasmid was used alone. Low passage C2C12 cells obtained from ATCC were transfected with either constructs, stably selected with 500 μg/mL hygromycin and subcloned using two rounds of serial dilutions to isolate single cell-derived colonies in a 96 wells plate format. […] The selected clones were cultured in presence of 100 μg/mL hygromycin B and were transferred to the HTS Facility at the University of Pennsylvania for implementation into a 384-wells format suitable for HTS.
(§2) The construct for generating the screening C2C12 cell line carrying the 5′ and 3′UTR of the human utrophin gene is described by Moorwood. […] Some compounds could increase light emission independently from the 5′ and 3′UTR regions, i.e., by activating the CMV promoter or increasing overall mRNA synthesis. Therefore, in order to distinguish such compounds, a counterscreening cell line stably expressing only the CMV-driven luciferase gene was generated (FIG. 1A). To determine optimal conditions for the implementation in a 384-wells high-throughput format, evaluated were DMSO tolerance, optimal cell density and incubation time (FIG. 5A-5C).
(§3) A first criterion for evaluating the performance of the selected hits was whether their activity was dose-dependent. After performing a dose-response analysis (5 nM to 10 μM) of each hit in the screening cell line, a clustering approach was applied (complete linkage with Euclidean distance measurement) to highlight similarities between compounds profiles. […] By modeling each dose-response trace with a 4-parameter logistic model applied to the Z— score values (FIG. 2B), the EC50 of each molecule was calculated.
(§4) Cells were allowed to attach overnight at 37° C., 5% CO2 in a humidified chamber. […] Compounds were added to a final concentration of 1 μM and 100 nM in 0.2% DMSO. Columns 1 and 23 were treated with 0.2% DMSO (negative control). Columns 2 and 24 were treated with 100 nM Panobinostat (positive control). Cells were incubated for 24 hours at 37° C., 5% CO2. […] Luminescence was measured on an EnVisionXcite Multilabel Plate Reader (PerkinElmer), using ultrasensitive luminescence measurement technology.

Assay [2] has as its system utrophin protein in C2C12 cells. Put plainly: Utrophin western blot in C2C12 cells (endogenous protein expression). The conditions noted are these: for Utrophin protein levels, fold increase: 1 μM, 24 hours, normalized to tubulin, vs 0.1% DMSO control; for utrophin protein levels in a separate assay (data not shown): hits with H2LPS equal to 0. On the procedure: The 10 highest scoring hits were selected from this subset for performing in vitro validation. C2C12 cells were treated with 1 μM concentrations of the selected hits for 24 hours, followed by western blot evaluation of utrophin levels as an orthogonal assay for endogenous protein expression. […] Panobinostat, an FDA-approved non-selective HDAC inhibitor for cancer treatment, increased utrophin levels by 1.9-fold. […] AR-42 (S2244), another HDAC inhibitor with proven preclinical efficacy in contrasting cancer-induced cachexia, increased utrophin by 2.3-fold and had the second highest H2LPS. Consistent with the calculated HPS, the highest scoring hit, TSA (S1045), had also the highest magnitude of protein upregulation (3.9-fold) followed by PCI-24781 (S1090; 3.7-fold). Importantly, high H2LPS was generally correlated with confirmation in WB assays (FIG. 2E).
Total RNA was extracted from TA muscle samples with RNAeasy kit (Qiagen, USA) and reverse transcribed with random hexamers. qPCR was performed using Taqman probes for Utrophin (Assay ID Mm01168846_ml) and β-actin. Muscle tissue samples were lysed with TNEC buffer (50 mM Tris-HCl, pH 8.0; 150 mMNaCl; 1% NP40; 2 mM EDTA) buffer containing complete protease inhibitor cocktail (Roche, Basel, Switzerland). C2C12 cells were treated for 24 h with 1 μM concentrations of compounds from a fresh batch (3 wells for each compound), and cell samples were lysed with RIPA buffer with protease inhibitor cocktail. The experiment was repeated three independent times. 50-75 μg of total proteins from muscle tissues, or 4 μg of cell protein extracts, were resolved on a 3-8% Tris-Acetate gradient gel (NuPage; Invitrogen), transferred to PDVF or nitrocellulose membranes and mouse monoclonal anti-utrophin antibody MANCHO3 clone 8A4 (developed by Glenn E. Morris and obtained from the Developmental Studies Hybridoma Bank, Iowa) or a custom-made anti-UtrophinA rabbit polyclonal antibody (muscle tissue samples) generated and described previously by Chakkalakal et al., Nucleic Acids Res. 36, 826-838 (2008), which is incorporated herein by reference in its entirety.
TSA is a broad-spectrum HDAC inhibitor. […] To further validate in vitro the dose-dependent capacity of TSA to upregulate utrophin protein, C2C12 cells were treated for 24 hours with increasing concentrations of TSA (from 1 nM to 10 μM) (FIG. 3B). Consistent with the single-dose western blot validation experiments, utrophin protein levels were increased 4.3 times by 1 μM TSA. […] Some cytotoxicity was evident for TSA concentrations higher than 1 μM.

The subject of assay [3] is CMV-driven luciferase gene. The assay can be described thus: Counterscreening assay: C2C12 line stably expressing only the CMV-driven luciferase gene. The conditions noted are these: for luciferase activity in the counterscreening assay: dose-response 5 nM to 10 μM, FIG. 6. On the procedure: as §1, §2, §3, §4
Background: Counterscreens check selectivity or assay interference.

The mark [4] stands for this setting: C2C12, 4-parameter logistic fit of Z-scores, 24 h, no unit in table (0.013 = 13 nM), read-out: EC50 screen.
The mark [5] stands for this setting: C2C12, read-out: EC50 score (1 to 4).
[6] abbreviates: 4-parameter logistic fit of Z-scores, 24 h, no unit in table (0.013 = 13 nM), read-out: EC50 screen.

In general, EC50 refers to the concentration that produces a half-maximal response. As for `Cc1cc(C)cc(C(=O)NOCCCCCC(=O)NO)c1` [LMK-235], the concentration for a half-maximal effect (EC50) was 683 nM in assay [1] (setting [4]) and 100 to 1000 nM in assay [1] (setting [5]). In assay [1], the Upper-lower limits scoren is given as 43.40. Moreover, the Fold diff entry in assay [1] was “High”.
Turning to `CC(=O)O/N=C1/C(=C2/C(=O)Nc3cc(Br)ccc32)Nc2ccccc21` [BIO-acetoxime], the EC50 in assay [1] (setting [6]) is 330 nM. In assay [1], this compound came in with an Upper-lower limits scoren of 13.04 and a Fold diff of 0.65.
With `O=C(CCCCCN1C(=O)c2cccc3cccc(c23)C1=O)NO` [Scriptaid], the EC50 in assay [1] (setting [4]) stood at 2440 nM. In addition, the EC50 in assay [1] (setting [5]) was > 1000 nM. Also, in assay [1], the Upper-lower limits scoren was 62.01 and the Fold diff result is “High”.
On to Abexinostat [PCI-24781], for which the EC50 in assay [1] (setting [6]) was 138 nM. In assay [1], this compound showed an Upper-lower limits scoren of 44.18 and a Fold diff of 33.72. Moreover, the “Utrophin protein levels, fold increase” value in assay [2] was determined as 3.7 fold.
`O=C1Nc2cc(Br)ccc2/C1=C1/Nc2ccccc2/C1=N\O` [BIO] showed an Upper-lower limits scoren in assay [1] of 12.
Regarding `COc1ccc(-c2nc(N3CCOCC3)c3sc(CN(C)c4ncc(C(=O)NO)cn4)cc3n2)cn1` [CUDC-907], in assay [1] (setting [5]), the EC50 was < 50 nM. Besides, the “luciferase activity in the counterscreening assay” value in assay [3] was “significant luciferase activity”.
In the case of `CC(C)Oc1ccc2c(=O)c(-c3ccccc3)coc2c1` [ipriflavone], the EC50 in assay [1] (setting [5]) was < 50 nM.
Regarding Panobinostat, the half-maximal effective concentration (EC50) in assay [1] (setting [6]) came out at 13 nM. For the same compound, in assay [1] (FIG. 8, Panobinostat-treated vs untreated stable C2C12 cells), the “increase of signal activity over basal signal, primary screening” value is listed as 4-6 fold. Moreover, in assay [1] (FIG. 8, basal about 20,000 RLUs), the “signal (S), primary screening” value was “about 100,000 RLUs”. Further, in assay [1], the Upper-lower limits scoren amounted to 22.06 and the Fold diff came to 9.21. Further, the “activity in library screen (threshold 22.07% NPAc)” value in assay [1] (screened at 0.1 μM and 1 μM, 24 h) is “active at both concentrations”. The “increase over the basal signal, counterscreening” value in assay [3] (FIG. 8, Panobinostat-treated vs untreated) is given as 100 fold. Besides, the “signal (S), counterscreening” value in assay [3] (FIG. 8, basal about 400 RLUs) is 25-40,000 RLUs. The “luciferase activity in the counterscreening assay” value in assay [3] is recorded as “significant luciferase activity”. For the same compound, the “Utrophin protein levels, fold increase” value in assay [2] stood at 1.9 fold.
For `CN(C)c1ccc(C(=O)NCCCCCCC(=O)NO)cc1` [M344], in assay [1] (setting [6]), the EC50 was 3220 nM. In assay [1], this compound showed an Upper-lower limits scoren of 74.15 and a Fold diff of 2.54.
Turning to `O=C(/C=C/c1cccc(S(=O)(=O)Nc2ccccc2)c1)NO` [Belinostat], the EC50 in assay [1] (setting [4]) is 342 nM. In addition, the EC50 in assay [1] (setting [5]) lay in the range of 100 to 1000 nM. Also, in assay [1], the Upper-lower limits scoren is recorded as 43.41 and the Fold diff entry is given as “High”.
For `O=C1Cc2c([nH]c3ccc(Br)cc23)-c2ccccc2N1` [Kenpaullone], in that order: 34 nM, < 50 nM, 12.92 and 6.97.
For the compound `Cc1cc(O)c(-c2ccc([C@@H](C)CN)cc2)c2c1[nH]c(=O)c1sccc12.Cl` [OTS514 hydrochloride], in assay [2], the “utrophin protein levels in a separate assay (data not shown)” value is on record as “failed to increase utrophin protein levels”.
Consider `CCN(CC)Cc1ccc2cc(COC(=O)Nc3ccc(C(=O)NO)cc3)ccc2c1` [Givinostat], for which the EC50 in assay [1] (setting [4]) turned out to be 269 nM. The 50% effective concentration (EC50) in assay [1] (setting [5]) lay in the range of 100 to 1000 nM. In assay [1], this compound came in with an Upper-lower limits scoren of 46.59 and a Fold diff of 18.69. In assay [2], the “Utrophin protein levels, fold increase” value is listed as 2.2 fold.
For the compound `CCCCc1nc2cc(/C=C/C(=O)NO)ccc2n1CCN(CC)CC` [Pracinostat], in assay [1] (setting [4]), the EC50 was determined as 558 nM. The EC50 in assay [1] (setting [5]) was 100 to 1000 nM. In addition, in assay [1], the Upper-lower limits scoren was found to be 56.37 and the Fold diff came out at 59.25.
In the case of `CC(C)[C@H](C(=O)Nc1ccc(C(=O)NO)cc1)c1ccccc1` [AR-42], the concentration giving a half-maximal response (EC50) in assay [1] (setting [4]) is 369 nM. Moreover, the concentration giving a half-maximal response (EC50) in assay [1] (setting [5]) was 100 to 1000 nM. In assay [1], the Upper-lower limits scoren was determined as 59.94 and the Fold diff was found to be 14.72. For the same compound, the “Utrophin protein levels, fold increase” value in assay [2] amounted to 2.3 fold.
Take `O=C(/C=C/c1ccc(CN(CCO)CCc2c[nH]c3ccccc23)cc1)NO` [LAQ824, Dacinostat]: the “utrophin protein levels in a separate assay (data not shown)” value in assay [2] is on record as “failed to increase utrophin protein levels”.
Still for that read-out and setting: as for `Cn1cc(CNCC2CCN(c3ncc(C(=O)NO)cn3)CC2)c2ccccc21` [Quisinostat], the entry is “failed to increase utrophin protein levels”.
In the case of `C#Cc1cccc(Nc2ncnc3cc(OC)c(OCCCCCCC(=O)NO)cc23)c1` [CUDC-101], the results for the EC50 in assay [1] (setting [4]) and in assay [1] (setting [5]) were 1990 nM and > 1000 nM, respectively. For the same compound, the Upper-lower limits scoren in assay [1] was determined as 34.34. In addition, the Fold diff entry in assay [1] is reported as “High”.
`CN[C@@H](C)C(=O)N[C@H](C(=O)N1CCC[C@H]1C(=O)N[C@H](C(=O)NCCCCCCNC(=O)[C@@H](NC(=O)[C@@H]1CCCN1C(=O)[C@@H](NC(=O)[C@H](C)NC)C1CCCCC1)C(c1ccccc1)c1ccccc1)C(c1ccccc1)c1ccccc1)C1CCCCC1` [BV-6] (I: H-[NMeA][Chg]P[Dip] / II: H-[NMeA][Chg]P[Dip]; linker I:C-II:C via Hexamethylenediamine): the EC50 in assay [1] (setting [6]) came out at 99 nM. Also, in assay [1], the Upper-lower limits scoren is 7.00 and the Fold diff result is listed as “High”.
